Positions of bridges follow the written chain, without caps; N, C: chain ends. Residues, ends and D or L forms follow the SMILES beside them.
Columns and labels:
[1] = test system: mild to moderate atopic dermatitis; assay type: in vivo, human
Procedure: 26 subjects having mild to moderate atopic dermatitis and about 3-70% treatable body surface area (BSA) were enrolled in the study. […] Dosing was targeted at 0.62 g/kg/day of the formulation or 6.82 mg/kg/day of Compound 1. Based on an average body weight of 60 kg, and average BSA of 1.62 m2, a recommended starting dose of 2.5 g of a formulation (for example, Formulation 1 or 4; Formulations 2, 3, 5, and 6 may be dosed higher due to the lower concentration of Compound 1) is proposed as a starting point. Severity of atopic dermatitis (vIGA-AD score), treatable BSA, and the following 11 signs and symptoms were assessed: dryness, erythema, burning/stinging, erosion/ulceration, edema/swelling, itching, pain treated area, crusting, vesiculation, flaking/scaling, and bleeding.

[2] = test system: Phorbol Myristoyl Acetate (PMA)-induced skin inflammation; assay type: in vivo; conditions: mouse
From the text: The anti-inflammatory efficacy of Compound 1 on a Phorbol Myristoyl Acetate (PMA)-induced skin inflammatory mouse model (irritant contact dermatitis) is shown following topical application of a formulation including Compound 1 herein.

[3] = 7-day repeat dose tolerance dermal study in Gottingen Mini-Pigs (non-GLP); assay type: in vivo
From the text: The purpose of this study was to evaluate the dermal dose tolerance at the maximum feasible dose (concentration and application rate) of Compound 1 in Formulation 1, Formulation 2, or Formulation 3 of Table 2, including placebo (F1, F2, or F3 without Compound 1) when applied by topical dermal application to Gottingen Mini-Pigs twice daily for seven days.
Three experimentally naive male Gottingen Mini-Pigs, 4-5 months old and weighing 10.6-13.8 kilograms at the outset of the study had four dose sites (100 cm^2 per site) numbered 1, 2, 3, and 4. The dose sites were not rotated.
Animals were dosed with all formulations twice daily (two doses per site per day; 6 hours+/−30 minutes between the first and second dose for 7 days). Mortality/morbidity was performed twice daily and once on the day of scheduled euthanasia. On Days 1-7 animals were observed prior to dosing and at 1-2 hours post-dose. A final observation was recorded on Day 8 prior to scheduled euthanasia. Body weights were recorded on Days 1 and 7. Food consumption was determined daily. Blood for toxicokinetic evaluation was collected on Days 1 and 7 at 0.5, 1, 2, 4, 6, 8 and 24 hours post-dose. […] Animals were sacrificed on Day 8 and a gross necropsy was performed. The dosing area (skin) was collected and preserved.

[4] = PK/biodistribution following single topical dose: whole blood and plasma radioactivity; assay type: in vivo, male albino rats; set-up: Non-plasma compartment: unit not given beside the values; conditions: rat; for Concentration of radioactivity in recovered white blood cells: reverse wash of filters
Procedure: Whole blood and plasma radioactivity analysis, quantitative whole-body autoradiography (QWBA), and micro-autoradiography (mARG) studies are performed following a single topical dose administration to male rats. Formulation 1, Formulation 2, or Formulation 3, where Compound 1 is 3H-Compound 1, are applied in a single topical dose at a target dose of 5 mg/kg to six male albino rats.
An additional three male albino rats received a single topical appropriate amount of CETAPHIL (R) applied to the dose site approximately 1 hour prior to application of ^3H-Compound 1 in a single topical dose at a target dose of 5 mg/kg. An individual rat receiving the emollient pre-treatment was used for a single time-point of 2 hours, 8 hours, and 48 hours.

[5] = at EOT or at 2-week follow-up visit
[6] = CETAPHIL 1 hr prior to single topical 5 mg/kg, 48 h, dosing device removed by rat, potential oral administration by grooming
[7] = CETAPHIL 1 hr prior to single topical 5 mg/kg, 48 h, dosing device removed, potential oral administration
[8] = CETAPHIL emollient 1 hr prior to single topical 5 mg/kg, 2 h
[9] = CETAPHIL emollient 1 hr prior to single topical 5 mg/kg, 8 h
[10] = single topical 5 mg/kg, without CETAPHIL, 1 h
[11] = single topical 5 mg/kg, without CETAPHIL, 1 h post-dose
[12] = single topical 5 mg/kg, without CETAPHIL, 2 h
[13] = single topical 5 mg/kg, without CETAPHIL, 2 h post-dose
[14] = single topical 5 mg/kg, without CETAPHIL, 4 h
[15] = single topical 5 mg/kg, without CETAPHIL, 4 h post-dose
[16] = single topical 5 mg/kg, without CETAPHIL, 8 h
[17] = single topical 5 mg/kg, without CETAPHIL, 8 h post-dose
[18] = single topical 5 mg/kg, without CETAPHIL, 24 h
[19] = single topical 5 mg/kg, without CETAPHIL, 24 h post-dose
[20] = single topical 5 mg/kg, without CETAPHIL, 48 h
[21] = single topical 5 mg/kg, without CETAPHIL, 48 h post-dose

## CSCC[C@@H]1NC(=O)[C@H](CC(C)C)NC(=O)[C@H](CCCCN)NC(=O)[C@H](CCC(N)=O)NC(=O)[C@H](CCCNC(=N)N)NC(=O)[C@H](CCCCN)NC(=O)[C@H](CCCNC(=N)N)NC(=O)[C@H](CCC(N)=O)NC(=O)[C@H](C(C)C)NC(=O)[C@@H](NC(=O)[C@@H]2CCCN2C(=O)[C@H](C)NC(=O)[C@H](CC(C)C)NC(=O)[C@H](CC(C)C)NC(=O)[C@H](C)NC(=O)[C@H](CC(C)C)NC(=O)[C@H](CC(C)C)NC(=O)[C@@H](NC(=O)[C@H](C)NC(=O)[C@@H]2CCCN2C(=O)[C@H](CC(C)C)NC(=O)[C@H](CC(C)C)NC(=O)[C@H](C)NC(=O)[C@@H](NC(=O)[C@H](C)NC(=O)[C@H](C)N)C(C)C)C(C)C)CSSC[C@@H](C(=O)O)NC(=O)[C@@H]2CCCN2C1=O [Compound 1] (H-AAVALLPAVLLALLAPCVQRKRQKLMPC-OH; disulfide 17-28)
[1]; 1.1% as Formulation 4, BID for 7 days
  11 signs and symptoms of AD scored from patient diaries: net negative score
[1]; at 2-week follow up
  subjects whose vIGA-AD score worsened 2 units: 0 subjects
[1]; at 2-week follow up (3 subjects)
  subjects whose EOT vIGA-AD score worsened 1 unit: 13%
[1]; at 2-week follow up (10 subjects)
  subjects with improvement in vIGA-AD scores of 2 units: 44%
[1]; at 2-week post treatment
  subjects with 0-clear or 1-almost clear skin: 61%
[1]; at EOT (6 subjects)
  subjects with improved vIGA-AD scores of 2 units: 26%
[1]; at EOT (BID for 7 days)
  subjects with 0-clear or 1-almost clear vIGA-AD scores: 57%
[1]; [5]
  patients responding (reduction in treatable BSA or decrease in vIGA-AD severity score, or both): 24 of 26
  reduction in size of treatable BSA in responders: 20-100%
[1]; in vivo
  adverse events (AEs): no adverse events
  tolerability: well tolerated
[2]; 8 h post-challenge
  swelling and cellular infiltration in ear punch biopsies induced by PMA: reduced
[2]; in vivo
  skin wound healing and hair re-growth after repeated surgical trauma: does not impede
[2]; topical formulation, dose-dependent treatment
  inflammatory cell infiltration in skin biopsies in response to PMA: reduced
[2]; topical treatment
  ear swelling (ear thickness of intact ears) induced by PMA: attenuated
[3]; male mini-pigs, 0, 0.11, 0.33, 1.1% w/w applied topically twice daily for 7 consecutive days
  dermal tolerance: tolerated
[3]; male mini-pigs, highest dose tested: 0.75 grams of formulation applied twice daily for 7 days
  no-observed-adverse-effect level (NOAEL): 1.1 % w/w
[3]; male mini-pigs, topical 0.11, 0.33, 1.1% w/w (F3, F2, F1), 0.75 g per site twice daily for 7 days
  early deaths (mortality): no early deaths
[3]; male mini-pigs, topical 0.11, 0.33, 1.1% w/w, twice daily for 7 days
  clinical signs or dermal effects: no clinical signs or dermal effects noted
[3]; minipig, in vivo
  dermal irritation: no signs of dermal irritation
  general signs of toxicity: no general signs of toxicity

## CSCC[C@@H]1NC(=O)[C@H](CC(C)C)NC(=O)[C@H](CCCCN)NC(=O)[C@H](CCC(N)=O)NC(=O)[C@H](CCCNC(=N)N)NC(=O)[C@H](CCCCN)NC(=O)[C@H](CCCNC(=N)N)NC(=O)[C@H](CCC(N)=O)NC(=O)[C@H](C(C)C)NC(=O)[C@@H](NC(=O)[C@@H]2CCCN2C(=O)[C@H](C)NC(=O)[C@H](CC(C)C)NC(=O)[C@H](CC(C)C)NC(=O)[C@H](C)NC(=O)[C@H](CC(C)C)NC(=O)[C@H](CC(C)C)NC(=O)[C@@H](NC(=O)[C@H](C)NC(=O)[C@@H]2CCCN2C(=O)[C@H](CC(C)C)NC(=O)[C@H](CC(C)C)NC(=O)[C@H](C)NC(=O)[C@@H](NC(=O)[C@H](C)NC(=O)[C@H](C)N)C(C)C)C(C)C)CSSC[C@@H](C(=O)O)NC(=O)[C@@H]2CCCN2C1=O [^3H-Compound 1] (H-AAVALLPAVLLALLAPCVQRKRQKLMPC-OH; disulfide 17-28)
[4]; Plasma, single topical 5 mg/kg
  Cmax, total radioactivity: 14.53 ng/mL
[4]; Whole blood -WBC, single topical 5 mg/kg
  Cmax, total radioactivity: 11.68 ng/mL
[4]; Whole blood, single topical 5 mg/kg
  Cmax, total radioactivity: 2.282 ng/mL
[4]; [6]
  Blood: 1630 ng/mL
  Plasma: 2312 ng/mL
[4]; [7]
  Non-plasma compartment: 19.2
  Partition coefficient: 80.8
  WBC depleted blood: 303.9 ng equivalents/mL
[4]; [8]
  Blood: 4.444 ng/mL
  Non-plasma compartment: 26.5
  Partition coefficient: 73.5
  Plasma: 5.443 ng/mL
  WBC depleted blood: 2.333 ng equivalents/mL
[4]; [9]
  Blood: 16.05 ng/mL
  Non-plasma compartment: 21.3
  Partition coefficient: 78.7
  Plasma: 21.04 ng/mL
  WBC depleted blood: 3.223 ng equivalents/mL
[4]; after a single topical administration
  persistence in the blood: > 48 h
[4]; cream formulation, single topical administration
  time to penetrate the skin deep enough to reach blood vessels: less than one hour
[4]; single topical 5 mg/kg, 1 h post-dose, may not represent total white blood cells
  Concentration of radioactivity in recovered white blood cells: BLQ
[4]; single topical 5 mg/kg, 2 h post-dose
  Concentration of radioactivity in recovered white blood cells: BLQ
[4]; single topical 5 mg/kg, 4 h post-dose
  Concentration of radioactivity in recovered white blood cells: BLQ
[4]; single topical 5 mg/kg, 8 h post-dose
  Concentration of radioactivity in recovered white blood cells: BLQ
[4]; single topical 5 mg/kg, 24 h post-dose
  Concentration of radioactivity in recovered white blood cells: BLQ
[4]; single topical 5 mg/kg, 48 h post-dose
  Concentration of radioactivity in recovered white blood cells: BLQ
[4]; [10]
  Non-plasma compartment: 43.1
  Partition coefficient: 56.9
[4]; [11]
  Concentration of radioactivity in WBC depleted blood: BLQ
  Concentration of radioactivity in plasma: 1.764 ng equivalents/mL
  Concentration of radioactivity in whole blood: 1.923 ng equivalents/mL
[4]; [12]
  Non-plasma compartment: 24.9
  Partition coefficient: 75.1
[4]; [13]
  Concentration of radioactivity in WBC depleted blood: BLQ
  Concentration of radioactivity in plasma: 4.818 ng equivalents/mL
  Concentration of radioactivity in whole blood: 3.850 ng equivalents/mL
[4]; [14]
  Non-plasma compartment: 34.0
  Partition coefficient: 66.0
[4]; [15]
  Concentration of radioactivity in WBC depleted blood: 0.735 ng equivalents/mL
  Concentration of radioactivity in plasma: 4.896 ng equivalents/mL
  Concentration of radioactivity in whole blood: 4.303 ng equivalents/mL
[4]; [16]
  Non-plasma compartment: 27.8
  Partition coefficient: 72.2
[4]; [17]
  Concentration of radioactivity in WBC depleted blood: 2.282 ng equivalents/mL
  Concentration of radioactivity in plasma: 14.53 ng equivalents/mL
  Concentration of radioactivity in whole blood: 11.68 ng equivalents/mL
[4]; [18]
  Non-plasma compartment: 30.4
  Partition coefficient: 69.6
[4]; [19]
  Concentration of radioactivity in WBC depleted blood: 1.166 ng equivalents/mL
  Concentration of radioactivity in plasma: 6.709 ng equivalents/mL
  Concentration of radioactivity in whole blood: 5.593 ng equivalents/mL
[4]; [20]
  Non-plasma compartment: 21.7
  Partition coefficient: 78.3
[4]; [21]
  Concentration of radioactivity in WBC depleted blood: 1.109 ng equivalents/mL
  Concentration of radioactivity in plasma: 6.287 ng equivalents/mL
  Concentration of radioactivity in whole blood: 4.978 ng equivalents/mL
[4]; single topical dose, WBCs versus RBCs and RBC/WBC-depleted plasma
  partitioning among blood components: partitions to the WBCs (white blood cells) of blood preferentially

Source: patent publication US20250302967A1, “PEPTIDE FORMULATIONS AND USES THEREOF” (Amytrx Therapeutics, Inc., priority 2022, published 2025)
